# Measurements as given in patent US20260124226A1 (priority 2023, published 2026).
# Several values for one entry are separate records, joined by “and”; a condition that tells them apart may be missing. Equal entries are not always repeated. Where two headings read alike, the source gives them in different places.
# Legend:
# VEEV = experiment: microbe, parasite or virus in culture; type: cell-based, Venezuelan equine encephalitis virus
# EEEV = experiment: microbe, parasite or virus in culture; type: cell-based, Eastern equine encephalitis virus; conditions: Eastern equine encephalitis virus
# WEEV = experiment: microbe, parasite or virus in culture; type: cell-based, Western equine encephalitis virus
# CHIKV = experiment: microbe, parasite or virus in culture; type: cell-based, Chikungunya virus
# RVFV = experiment: microbe, parasite or virus in culture; type: cell-based, Rift Valley fever virus
# Heartland virus = experiment: microbe, parasite or virus in culture; type: cell-based; conditions: Vero
# La Crosse virus = experiment: microbe, parasite or virus in culture; type: cell-based
# Marpol virus = experiment: organism not typed; type: cell-based
# Punta Toro virus = experiment: microbe, parasite or virus in culture; type: cell-based
# [1] = tested on: Severe fever thrombocytopenia syndrome virus; experiment: organism not typed; type: cell-based; conditions: Vero
# Junin virus = experiment: microbe, parasite or virus in culture; type: cell-based
# [2] = tested on: Lymphocytic choriomeningitis virus; experiment: microbe, parasite or virus in culture; type: cell-based; conditions: Mammarenavirus choriomeningitidis, Vero
# Pichinde virus = experiment: microbe, parasite or virus in culture; type: cell-based; conditions: Vero
# Tacaribe virus = experiment: microbe, parasite or virus in culture; type: cell-based
# Influenza A H1N1 = experiment: microbe, parasite or virus in culture; type: cell-based, influenza A virus
# Flu A H7N9 (High Path) = experiment: microbe, parasite or virus in culture; type: cell-based, influenza A virus
# Flu A H5N1 (High Path) = type: cell-based, influenza A virus
# Flu A H3N2 = experiment: microbe, parasite or virus in culture; type: cell-based, influenza A virus
# Flu A H5N1 (Low Path) = experiment: microbe, parasite or virus in culture; type: cell-based, influenza A virus
# Flu B = experiment: microbe, parasite or virus in culture; type: cell-based, influenza B virus
# Parainfluenza virus 3 = experiment: organism not typed; type: cell-based
# EBOV = experiment: microbe, parasite or virus in culture; type: cell-based, Ebola virus; conditions: Zaire ebolavirus, Vero
# MERS = experiment: microbe, parasite or virus in culture; type: cell-based, MERS coronavirus; conditions: Middle East respiratory syndrome-related coronavirus
# POWV = experiment: microbe, parasite or virus in culture; type: cell-based, Powassan virus
# ZIKV = experiment: microbe, parasite or virus in culture; type: cell-based, Zika virus; conditions: for EC50: Vero 76 cells
# DENV2 = experiment: microbe, parasite or virus in culture; type: cell-based, Dengue virus 2; conditions: Dengue virus
# Usutu virus = experiment: microbe, parasite or virus in culture; type: cell-based; conditions: Vero 76
# Poliovirus = experiment: microbe, parasite or virus in culture; type: cell-based
# Enterovirus-68 = experiment: microbe, parasite or virus in culture; type: cell-based, EV-D68
# HRV-14 = experiment: microbe, parasite or virus in culture; type: cell-based, human rhinovirus; conditions: Rhinovirus B, HRV14
# Vero cells = conditions: African green monkey
# in vitro [3] = conditions: African green monkey
# in vitro [4] = conditions: dog
# in vitro [5] = conditions: African green monkey; remark: listed apart in the source
# in vitro [6] = conditions: Syrian golden hamster
# in vitro [7] = conditions: human
# in vitro [8] = conditions: human; remark: listed apart in the source
# Plasma stability [9] = experiment: Plasma stability
# Plasma stability [10] = experiment: Plasma stability; remark: listed apart in the source
# Plasma stability [11] = experiment: Plasma stability; remark: listed apart in the source
# [12] = Liver microsome stability; conditions: both, human, microsomes, pH 7.4
# [13] = Liver microsome stability; conditions: CD-1, mouse, microsomes
# [14] = Liver microsome stability; conditions: male, Sprague-Dawley, rat, microsomes, pH 7.4
# [15] = both, human
# [16] = male, CD-1, mouse
# [17] = male, Sprague-Dawley, rat
# [18] = both, human, pH 7.4
# [19] = CD-1, mouse
# [20] = male, Sprague-Dawley, rat, pH 7.4
# RSV = experiment: microbe, parasite or virus in culture; type: cell-based; conditions: human respiratory syncytial virus, MA104
# SARS-CoV-2 = experiment: microbe, parasite or virus in culture; type: cell-based; conditions: Severe acute respiratory syndrome coronavirus 2, Vero C1008
# WNV = experiment: microbe, parasite or virus in culture; type: cell-based; conditions: West Nile virus, Vero 76
# YFV = experiment: microbe, parasite or virus in culture; type: cell-based; conditions: Yellow fever virus, Huh-7
# ENTV71 = experiment: microbe, parasite or virus in culture; type: cell-based, EV-A71; conditions: Enterovirus A, Vero 76
# MEV = experiment: microbe, parasite or virus in culture; type: cell-based; conditions: Measles morbillivirus, Vero 76
# [21] = female, ICR (CD-1), mouse, in vivo, po
# [22] = mouse, in vivo, po, 15 mg/kg
# in vitro [23] = conditions: human; remark: listed apart in the source
# physchem [24] = conditions: simulated gi fluid, pH 1.3
# physchem [25] = conditions: simulated gi fluid, pH 5.2
# [26] = Western equine encephalitis virus, Vero 76
# [27] = Mammarenavirus tacaribeense, Vero
# [28] = Rift Valley fever virus, Huh-7, RVFV strain MP-12, Huh7 cells
smiles,measurement,setting,value
O=c1ccn([C@@H]2O[C@](F)(COP3(=O)OCc4ccccc4O3)[C@@H](O)[C@H]2O)c(=O)[nH]1 (stereo partly drawn) [EIDD-2838],EC50,VEEV,8.51 µM
same,EC50,"VEEV; Venezuelan equine encephalitis virus, Vero 76",8.28 µM
same,EC90,EEEV; Vero 76,28.4 µM
same,EC50,WEEV,5.75 µM and 5.98 µM
same,EC50,WEEV; [26],7.82 µM
same,EC90,WEEV; [26],24.2 µM
same,EC50,"CHIKV; CHIKV, Vero76 cells",3.68 µM and 3.91 µM
same,EC90,"CHIKV; Chikungunya virus, Vero 76",23.9 µM
same,EC50,"CHIKV; Chikungunya virus, Vero 76, CHIKV, Vero76 cells",2.3 µM
same,EC50,RVFV,3.68 µM and 4.14 µM
same,EC90,Heartland virus,8.05 µM
same,EC50,La Crosse virus,0.69 µM
same,EC90,"La Crosse virus; La Crosse virus, Vero 76",0.12 µM
same,EC50,Marpol virus,19.1 µM
same,EC50,Marpol virus; Vero,25.3 µM
same,EC50,Punta Toro virus,5.75 µM
same,EC50,"Punta Toro virus; Punta Toro virus, Vero 76",6.21 µM
same,EC90,[1],7.82 µM
same,EC50,Junin virus,0.37 µM
same,EC90,"Junin virus; Mammarenavirus juninense, Vero",0.023 µM
same,EC90,[2],4.6 µM
same,EC90,Pichinde virus,0.55 µM
same,EC50,Tacaribe virus,0.046 µM
same,EC90,Tacaribe virus; [27],0.046 µM
same,EC50,Influenza A H1N1,1.2 µM and 1.59 µM and 1.98 µM
same,EC50,"Influenza A H1N1; Influenza A virus, H1N1, MDCK",2.3 µM
same,EC50,Flu A H7N9 (High Path),4.37 µM
same,EC50,"Flu A H7N9 (High Path); Influenza A virus, H7N9, MDCK",5.29 µM
same,EC50,Flu A H5N1 (High Path),11.3 µM
same,EC50,Flu A H3N2,0.87 µM
same,EC50,"Flu A H3N2; Influenza A virus, H3N2, MDCK",0.97 µM
same,EC50,Flu A H5N1 (Low Path),0.71 µM
same,EC50,"Flu A H5N1 (Low Path); Influenza A virus, H5N1, MDCK",0.78 µM
same,EC50,Flu B,0.74 µM and 0.67 µM
same,EC50,"Flu B; Influenza B virus, MDCK",0.78 µM
same,EC50,Parainfluenza virus 3,78.2 µM
same,EC50,Parainfluenza virus 3; MA104,73.6 µM
same,EC50,EBOV,150 µM
same,EC50,MERS; Vero 76,1.98 µM
same,EC50,MERS; Vero C1008,2.53 µM
same,EC50,POWV,98.9 µM
same,EC50,"POWV; Powassan virus, BHK",75.9 µM
same,EC50,ZIKV; ZIKV,7.82 µM and 9.2 µM
same,EC90,"ZIKV; Zika virus, Vero 76",43.7 µM
same,EC50,"ZIKV; Zika virus, Vero 76, ZIKV",8.28 µM
same,EC50,"DENV2; DENV2, Vero 76",> 230 µM
same,EC90,"DENV2; DENV2, Vero 76",29.9 µM
same,EC50,Usutu virus,6.9 µM
same,EC90,Usutu virus,25.8 µM
same,EC50,Poliovirus,8.74 µM
same,EC50,"Poliovirus; Enterovirus C, Vero 76",7.36 µM
same,EC50,"Enterovirus-68; Enterovirus D, RD, Enterovirus-68, RD cells",7.36 µM
same,EC50,"Enterovirus-68; Enterovirus-68, RD cells",7.82 µM
same,EC50,HRV-14,> 230 µM
same,CC50,Vero cells,213 µM
same,CC50,in vitro [3],> 230 µM
same,CC50,in vitro [4],> 230 µM
same,CC50,in vitro [5],> 230 µM
same,CC50,in vitro [6],> 230 µM
same,CC50,in vitro [7],> 230 µM
same,CC50,in vitro [8],> 230 µM
same,half-life at 1 μM,"Plasma stability [9]; both, human, plasma",12 min
same,half-life at 1 μM,"Plasma stability [10]; male, CD-1, mouse, plasma",1 min
same,half-life at 1 μM,"Plasma stability [11]; male, Sprague-Dawley, rat, plasma",< 1 min
same,half-life at 1 μM,[12],7 min
same,half-life at 1 μM,[13],7 min
same,half-life at 1 μM,[14],8 min
"CC(C)[C@H](N)C(=O)OC[C@@]1(F)O[C@@H](n2ccc(=O)[nH]c2=O)[C@H](O)[C@@H]1O [EIDD-2971, [(1S)-1-[[(2S,3S,4R,5R)-5-(2,4-dioxopyrimidin-1-yl)-2-fluoro-3,4-dihydroxy-tetrahydrofuran-2-yl]methoxycarbonyl]-2-methyl-propyl]ammonium chloride]",max [2749],[15],0.0152 µM
same,max [2749],[16],0.267 µM
same,max [2749],[17],0.155 µM
same,half-life,[18]; microsomes,38 min
same,max [2749],[18],0.179 µM
same,max [2749],[19],0.305 µM
same,half-life,[19]; microsomes,11 min
same,half-life,[20]; microsomes,33 min
same,max [2749],[20],0.203 µM
same,half-life,"Plasma stability [9]; human plasma, drug 1.00 μM, 37° C.",81 min
same,half-life,"Plasma stability [10]; mouse plasma, drug 1.00 μM",59 min
same,half-life,"Plasma stability [11]; rat plasma, drug 1.00 μM",50 min
"CC(C)OC(=O)[C@H](C)N[P@](=O)(OC[C@@]1(F)O[C@@H](n2ccc(=O)[nH]c2=O)[C@H](O)[C@@H]1O)Oc1ccccc1 [EIDD-3232, isopropyl ((S)-(((2S,3S,4R,5R)-5-(2,4-dioxo-3,4-dihydropyrimidin-1(2H)-yl)-2-fluoro-3,4-dihydroxytetrahydrofuran-2-yl)methoxy)(phenoxy)phosphoryl)-L-alaninate]",EC50,"VEEV; Venezuelan equine encephalitis virus, Vero 76, VEEV strain TC-83, Vero 76 cells",> 32 µM
same,EC50,"EEEV; Vero 76, EEEV strain FL39-939, Vero 76 cells",> 32 µM
same,EC50,"CHIKV; Chikungunya virus, Huh-7",5.7 µM
same,EC90,"CHIKV; Chikungunya virus, Huh-7",4.5 µM
same,EC50,RVFV; [28],6.4 µM
same,EC90,RVFV; [28],7.4 µM
same,EC90,"Junin virus; Mammarenavirus juninense, Vero",2.2 µM
same,EC50,"Junin virus; Mammarenavirus juninense, Vero, Junin virus strain Candid #1, Vero cells",2 µM
same,EC90,Tacaribe virus; [27],3.9 µM
same,EC50,"Tacaribe virus; Mammarenavirus tacaribeense, Vero, Tacaribe virus strain TRVL 11573, Vero cells",2.8 µM
same,EC50,"Influenza A H1N1; Influenza A virus, H1N1, MDCK",1.3 µM
same,EC90,"Influenza A H1N1; Influenza A virus, H1N1, MDCK",1.5 µM
same,EC50,Parainfluenza virus 3; MA104,> 32 µM
same,EC50,RSV,> 32 µM
same,EC50,MERS; Vero 76,> 32 µM
same,EC50,SARS-CoV-2,> 17 µM
same,EC50,"POWV; Powassan virus, BHK-21, POWV(Lineage 1) strain LB, BHK-21 cells",> 32 µM
same,EC50,"DENV2; DENV2, Huh-7",4.2 µM
same,EC90,"DENV2; DENV2, Huh-7",19 µM
same,EC50,WNV,> 32 µM
same,EC50,YFV,15 µM
same,EC50,"Poliovirus; Enterovirus C, Vero 76, Poliovirus strain Mahoney, Vero 76 cells",> 32 µM
same,EC50,"Enterovirus-68; Enterovirus D, RD",18 µM
same,EC50,ENTV71,> 32 µM
same,EC50,HRV-14,> 32 µM
same,EC50,MEV,9.6 µM
same,Cmax,[21],2940 ± 826 nM
same,Tolerability Summary,[22],Class D
same,CC50,in vitro [4],> 32 µM
same,CC50,in vitro [6],> 32 µM
same,CC50,in vitro [7],> 32 µM
same,CC50,in vitro [8],> 32 µM
same,CC50,in vitro [23],> 32 µM
same,half-life,physchem [24],288 min
same,half-life,physchem [25],> 1440 min
